One assay has as its target T1, hCA II (Homo sapiens, UniProt P00918).
T1 construct: gene CA2; recombinant, obtained in-house as previously reported
As to the kind of experiment: stopped-flow CO2 hydrase assay. Type of assay: biochemical. An excerpt: stopped-flow CO2 hydrase assay on hCA II

Assay [1] concerns T2, C. albicans 5 strains.
T2 construct: 5 clinical isolates
Kind of assay: microbe, parasite or virus in culture. Also noted: species or system clinical Candida isolates; broth microdilution antifungal MIC, visual growth inhibition, CLSI. As to conditions: Candida albicans, 24 h, read-out: Tested Fungi (MIC Values μg/mL) / C. albicans 5 strains. As to the method: (§1) The in vitro antifungal activities were determined by the broth microdilution method with sabouraud dextrose broth (BBL Microbiology Systems, Cockeysville, MD, USA), as recommended by the by the CLSI [43]. Ninety-six-well polystyrene microtitre plates containing serial dilutions of each compound were inoculated with each microorganism to yield the appropriate density (1–5 × 10^3 cells/mL) in a 100-μL final volume. Each plate included (i) fungi without the addition of the compound, (ii) just the medium, and (iii) just the compound. Topical and systemic antifungal reference drugs, clotrimazole and fluconazole, were inserted in the experiment. The plates were incubated for 24 h at 35 °C. […] Three independent experiments were performed in triplicate. The antimicrobial activity of these thiazolidinones was evaluated versus 24 clinical Gram-positive (S. aureus and S. epidermidis) and Gram-negative (E. coli and Enterobacter spp.) microorganisms. The antifungal activity of these derivatives was then tested versus 16 clinical fungal isolates belonging to the most relevant Candida spp. (C. albicans, C. tropicalis, C. parapsilosis, C. sakè, and C. glabrata). Prior to testing, each isolate was cultured on a selective medium to ensure purity and optimal growth, as previously reported. The isolates were routinely identified by the morphological aspects of colonies and by biochemical identification. The used clinical isolates were collected from specimens of patients at the ‘Azienda Policlinico Umberto I’ (Sapienza University of Rome) and were obtained from hematology/oncology and surgery departments, which also included an intensive care unit. In particular, the samples were isolated from the upper and lower respiratory tract, blood, and indwelling venous catheters; the isolates were identified by conventional methodologies. Participating subjects gave their written informed consent for this study.

Assay [2] deals with T3, C. glabrata 3 strains.
T3 construct: 3 clinical isolates
Kind of assay: microbe, parasite or virus in culture. Also noted: species or system clinical Candida isolates; broth microdilution antifungal MIC, visual growth inhibition, CLSI. As to conditions: Nakaseomyces glabratus, 24 h, read-out: Tested Fungi (MIC Values μg/mL) / C. glabrata 3 strains. As to the method:
as §1

A further assay concerns the target T4, CgNce103 (Nakaseomyces glabratus, UniProt Q6FTL6).
T4 construct: gene NCE103; recombinant, obtained in-house as previously reported; beta-class zinc enzyme
T4 sequence (Q6FTL6 1-219): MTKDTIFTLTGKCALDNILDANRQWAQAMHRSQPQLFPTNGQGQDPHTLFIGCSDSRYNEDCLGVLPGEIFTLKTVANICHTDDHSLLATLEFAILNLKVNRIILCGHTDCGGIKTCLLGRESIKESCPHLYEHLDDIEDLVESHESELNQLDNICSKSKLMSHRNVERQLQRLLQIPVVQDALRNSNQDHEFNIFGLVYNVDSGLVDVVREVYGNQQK
Kind of assay: stopped-flow CO2 hydrase assay. Format: biochemical.

The next assay concerns the target T5, hCA I (Homo sapiens, UniProt P00915).
T5 construct: gene CA1; recombinant, obtained in-house as previously reported
As to the kind of experiment: stopped-flow CO2 hydrase assay. Type of assay: biochemical. From the text: stopped-flow CO2 hydrase assay on hCA I

In assay [3] the test system is T6, Candida sake C. sakè 3 strains.
T6 construct: 3 clinical isolates
As to the kind of experiment: microbe, parasite or virus in culture. Also noted: species or system clinical Candida isolates; CLSI broth microdilution MIC, Sabouraud dextrose broth, 35 °C, visual complete growth inhibition. As to conditions: Fermentozyma sake, 24 h. How it is done:
as §1

In assay [4] the test system is T7, C. parapsilosis 2 strains.
T7 construct: 2 clinical isolates
Kind of assay: microbe, parasite or virus in culture. Also noted: species or system clinical Candida isolates; CLSI broth microdilution MIC, Sabouraud dextrose broth, 35 °C, visual complete growth inhibition. As to conditions: Lodderomyces parapsilosis, 24 h, read-out: Tested Fungi (MIC Values μg/mL) / C. parapsilosis 2 strains. How it is done: as §1

In assay [5] the test system is T8, C. tropicalis 3 strains.
T8 construct: 3 clinical isolates
As to the kind of experiment: microbe, parasite or virus in culture. As to conditions: Candida tropicalis, 24 h, read-out: Tested Fungi (MIC Values μg/mL) / C. tropicalis 3 strains. Also noted: species or system clinical Candida isolates; CLSI broth microdilution MIC, Sabouraud dextrose broth, 35 °C, visual complete growth inhibition. How it is done: as §1

The nature of assay [6]: stopped-flow CO2 hydrase assay. As to conditions: read-out: hCA I. Type of assay: biochemical, Homo sapiens.
Assay [7] concerns T3, C. glabrata 3 strains. As to the kind of experiment: microbe, parasite or virus in culture. Also noted: species or system clinical Candida isolates; CLSI broth microdilution MIC, Sabouraud dextrose broth, 35 °C, visual complete growth inhibition. As to conditions: Nakaseomyces glabratus, 24 h. As to the method:
as §1

Assay [8] concerns T6, Candida sake C. sakè 3 strains. As to the kind of experiment: microbe, parasite or virus in culture. Also noted: species or system clinical Candida isolates; broth microdilution antifungal MIC, visual growth inhibition, CLSI. As to conditions: Fermentozyma sake, 24 h; read-out: Tested Fungi (MIC Values μg/mL) / C. sakè 3 strains. How it is done: as §1
Assay [9] relates to T8, C. tropicalis 3 strains. As to the kind of experiment: microbe, parasite or virus in culture. Also noted: species or system clinical Candida isolates; broth microdilution antifungal MIC, visual growth inhibition, CLSI. As to conditions: Candida tropicalis, 24 h, read-out: Tested Fungi (MIC Values μg/mL) / C. tropicalis 3 strains. As to the method: as §1
Assay [10] concerns T2, C. albicans 5 strains. Kind of assay: microbe, parasite or virus in culture. Also noted: species or system clinical Candida isolates; CLSI broth microdilution MIC, Sabouraud dextrose broth, 35 °C, visual complete growth inhibition. As to conditions: Candida albicans, 24 h, read-out: Tested Fungi (MIC Values μg/mL) / C. albicans 5 strains / 32–128. How it is done:
as §1

Setting [11] is: read-out: Tested Fungi (MIC Values μg/mL) / C. sakè 3 strains.
The mark [12] stands for this setting: read-out: Tested Fungi (MIC Values μg/mL) / C. glabrata 3 strains.

Among the data in article PMC7215574, “Development of Thiazolidinones as Fungal Carbonic Anhydrase Inhibitors” (International Journal of Molecular Sciences, 2020) are Ki and MIC values, retold here.

≈ marks a conversion by molar mass, not a printed value. Like-named read-outs stand apart in the source and are kept apart here. A value given as a limit tells only on which side of the number the result lay.

T5 sequence (P00915 2-261): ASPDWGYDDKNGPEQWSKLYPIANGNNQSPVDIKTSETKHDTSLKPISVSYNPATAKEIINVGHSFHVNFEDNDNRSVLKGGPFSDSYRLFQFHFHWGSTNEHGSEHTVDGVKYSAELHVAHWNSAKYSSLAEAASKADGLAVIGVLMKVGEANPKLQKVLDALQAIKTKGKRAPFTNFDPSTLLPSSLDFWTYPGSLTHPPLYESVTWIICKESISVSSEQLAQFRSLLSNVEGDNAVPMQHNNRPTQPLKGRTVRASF

With `O=C(N/N=C1\SCC(=O)N1c1ccc(Cl)cc1)C(O)c1ccccc1` (stereo not shown) [3f], the Ki is 62.9 µM on hCA II, 0.51 µM at CgNce103 and more than 100 µM at hCA I. In addition, the MIC was 4 to 8 µg/mL (≈ 10.6 to 21.3 µM) with C. albicans 5 strains [1]; 4 to 8 µg/mL (≈ 10.6 to 21.3 µM) with C. glabrata 3 strains [2]; 16 µg/mL (≈ 42.6 µM) in assay [3] (setting [11]); 16 µg/mL (≈ 42.6 µM) in assay [4]; 32 µg/mL (≈ 85.1 µM) in the assay with C. tropicalis 3 strains [5].
With `O=C(N/N=C1\SCC(=O)N1c1ccccc1F)C(O)c1ccccc1` (stereo not shown) [3a], the MIC is 4 to 8 µg/mL (≈ 11.1 to 22.3 µM) with C. albicans 5 strains [1]; 16 µg/mL (≈ 44.5 µM) in [3] (setting [11]); 32 µg/mL (≈ 89 µM) in assay [4]; 32 µg/mL (≈ 89 µM) in the assay with C. tropicalis 3 strains [5]; 16 µg/mL (≈ 44.5 µM) in the assay with C. glabrata 3 strains [7] (setting [12]). Also, the Ki at CgNce103 is 0.27 µM; at hCA I, more than 100 µM; in [6], more than 100 µM.
Regarding `O=C(N/N=C1\SCC(=O)N1c1cccc(F)c1)C(O)c1ccccc1` (stereo not shown) [3b], the MIC in the assay with C. albicans 5 strains [1] is 4 to 8 µg/mL (≈ 11.1 to 22.3 µM); in assay [3] (setting [11]), 16 µg/mL (≈ 44.5 µM); in assay [4] it was 32 µg/mL (≈ 89 µM); in the assay on C. tropicalis 3 strains [5], 32 µg/mL (≈ 89 µM); in the assay on C. glabrata 3 strains [7] (setting [12]), 16 µg/mL (≈ 44.5 µM). The Ki at CgNce103 is 0.48 µM; on hCA I, more than 100 µM; in assay [6], more than 100 µM.
Regarding `CC1S/C(=N\NC(=O)C(O)c2ccccc2)N(c2ccc(Br)cc2)C1=O` (stereo not shown) [4f], the MIC in assay [8] was 4 to 8 µg/mL (≈ 9.21 to 18.4 µM); with C. albicans 5 strains [1], 4 to 16 µg/mL (≈ 9.21 to 36.8 µM); in the assay on C. tropicalis 3 strains [9], 4 to 8 µg/mL (≈ 9.21 to 18.4 µM); in the assay with C. glabrata 3 strains [2], 4 to 8 µg/mL (≈ 9.21 to 18.4 µM); in assay [4], 32 µg/mL (≈ 73.7 µM). Further, the Ki on CgNce103 is 0.11 µM; on hCA I, more than 100 µM; in [6], more than 100 µM.
In the case of `O=C(N/N=C1\SCC(=O)N1c1cccc(Cl)c1)C(O)c1ccccc1` (stereo not shown) [3e], the Ki was 50.3 µM on hCA II, 0.43 µM on CgNce103 and more than 100 µM on hCA I. In addition, the MIC in [8] is 8 to 32 µg/mL (≈ 21.3 to 85.1 µM); in the assay on C. albicans 5 strains [1] it was 8 to 32 µg/mL (≈ 21.3 to 85.1 µM); with C. glabrata 3 strains [2] it was 8 to 32 µg/mL (≈ 21.3 to 85.1 µM); in [4], 32 µg/mL (≈ 85.1 µM); in the assay on C. tropicalis 3 strains [5], 32 µg/mL (≈ 85.1 µM).
On to `CC1S/C(=N\NC(=O)C(O)c2ccccc2)N(c2ccc(F)cc2)C1=O` (stereo not shown) [4b], for which the MIC was 4 to 8 µg/mL (≈ 10.7 to 21.4 µM) in [8]; 16 to 32 µg/mL (≈ 42.8 to 85.7 µM) with C. albicans 5 strains [1]; 8 to 32 µg/mL (≈ 21.4 to 85.7 µM) in the assay on C. tropicalis 3 strains [9]; 8 to 32 µg/mL (≈ 21.4 to 85.7 µM) with C. glabrata 3 strains [2]; 8 µg/mL (≈ 21.4 µM) in [4]. For the same molecule, the figures for the Ki (on CgNce103; on hCA I; in [6]) were 0.48 µM, more than 100 µM and more than 100 µM, respectively.
In the case of `O=C(N/N=C1\SCC(=O)N1c1cccc(Br)c1)C(O)c1ccccc1` (stereo not shown) [3h], the Ki on hCA II is 55.7 µM; on CgNce103 it was 0.82 µM; on hCA I, more than 100 µM. Further, the MIC in the assay with C. albicans 5 strains [1] was 8 to 16 µg/mL (≈ 19 to 38.1 µM); in the assay on C. tropicalis 3 strains [9] it was 8 to 32 µg/mL (≈ 19 to 76.1 µM); in the assay on C. glabrata 3 strains [2] it was 8 to 32 µg/mL (≈ 19 to 76.1 µM); in assay [3] (setting [11]), 16 µg/mL (≈ 38.1 µM); in [4], 8 µg/mL (≈ 19 µM).
With `OC(Cn1cncn1)(Cn1cncn1)c1ccc(F)cc1F` [Fluconazole], the MIC (in [3] (read-out: Tested Fungi (MIC Values μg/mL) / C. sakè 3 strains / 8–32); with C. albicans 5 strains [10]; in [4]; in the assay on C. tropicalis 3 strains [5]; in the assay with C. glabrata 3 strains [7] (read-out: Tested Fungi (MIC Values μg/mL) / C. glabrata 3 strains / 8–32)) was 2 µg/mL (≈ 6.53 µM) each time.
